Data: ChEMBL document CHEMBL1201862, “PubChem BioAssay data set” (2004)
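Method: 48-hour compound exposure of cells in 96-well plates, five concentrations, linear interpolation of endpoints. GI50 marks 50% less growth.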 Active and inactive are the calls of the source. Rule as the data show it: active = GI50 up to about 1.1 µM and inactive = higher.

Key:
Assay in all cases: NCI tumour cell line growth inhibition, 48 h
[1] = system: A549
[2] = system: U-251
[3] = system: UACC-257
[4] = system: MDA-MB-231
[5] = system: SNB-75
[6] = system: A498
[7] = system: CCRF-CEM
[8] = system: NCI-H460
[9] = system: MOLT-4
[10] = system: KM12
[11] = system: 786-0
[12] = system: SK-MEL-2
[13] = system: NCI-H23
[14] = system: COLO 205
[15] = system: OVCAR-4
[16] = system: CAKI-1
[17] = system: SW-620
[18] = system: ACHN
[19] = system: EKVX

Measured: GI50

Clc1ccc(C2C3COc4ccccc4C3=NN2c2ccccc2)cc1 (stereo not drawn)
inactive: [1] > 100 µM | [2] 36.1 µM | [3] > 100 µM | [4] 59.3 µM | [5] > 70.3 µM | [6] > 100 µM | [7] 2.38 µM | [8] > 100 µM | [9] 8.73 µM | [10] 20.7 µM | [11] > 29.6 µM | [12] > 75.3 µM | [13] > 91.6 µM | [14] > 100 µM | [15] > 100 µM | [16] 58.9 µM | [17] 5.05 µM | [18] > 100 µM | [19] > 100 µM

Cc1[nH]c2ccccc2c1/C=N/c1ccc(/N=C/c2c(C)[nH]c3ccccc23)cc1
inactive: [1] 80 µM | [2] 29.6 µM | [3] 67.3 µM | [4] 32.5 µM | [5] 48.3 µM | [6] 52.1 µM | [7] 15.4 µM | [8] 41.2 µM | [9] 18.9 µM | [10] 16.4 µM | [11] 18.8 µM | [12] 23.9 µM | [13] 29.1 µM | [14] 12.9 µM | [15] 26.4 µM | [16] 38.7 µM | [17] 22.9 µM | [18] 49.1 µM | [19] 38.9 µM

Cn1c(N=P(c2ccccc2)(c2ccccc2)c2ccccc2)c([N+](=O)[O-])c(=O)n(C)c1=O
inactive: [1] 40.6 µM | [2] 66.2 µM | [3] 73.1 µM | [4] 32.2 µM | [5] 25.5 µM | [6] 59.7 µM | [7] 20.2 µM | [8] 43.4 µM | [9] 21.2 µM | [10] 25.6 µM | [11] 39 µM | [12] 17.4 µM | [13] 99.1 µM | [14] 44.5 µM | [15] 41.1 µM | [16] > 100 µM | [17] 41.4 µM | [18] 55.7 µM | [19] 56.2 µM

COC1=CCC2=C(CCN(C(=O)C3CC3)C2Cc2ccc(OC)c(O)c2)C1 (stereo not drawn)
inactive: [1] 63.4 µM | [2] 86.7 µM | [3] 47.9 µM | [4] 63.2 µM | [5] 14.9 µM | [6] 68.5 µM | [7] 34 µM | [8] 42 µM | [9] 8.67 µM | [10] 37.2 µM | [11] 92.9 µM | [12] 38.3 µM | [13] 26.7 µM | [14] 51.5 µM | [15] 42.5 µM | [16] 83.4 µM | [17] 29 µM | [18] > 100 µM | [19] 47.1 µM

c1ccc(NCCSc2nc3ccccc3s2)cc1
inactive: [1] 37.7 µM | [2] 52.8 µM | [3] 22.1 µM | [4] 29.4 µM | [5] > 100 µM | [6] 26.5 µM | [7] 14.8 µM | [8] 30.9 µM | [9] 24.9 µM | [10] 30.9 µM | [11] 37.6 µM | [12] 30.8 µM | [13] 29 µM | [14] 22.4 µM | [15] 49.8 µM | [16] 93.1 µM | [17] 58.3 µM | [18] 43.8 µM | [19] 29.5 µM

N#CC(c1ccccc1)N1CCCN(C(C#N)c2ccccc2)C1c1ccccc1O (stereo not drawn)
inactive: [1] > 100 µM | [2] > 100 µM | [3] > 100 µM | [4] > 100 µM | [5] > 100 µM | [6] > 100 µM | [7] 40.1 µM | [8] > 100 µM | [9] 61.1 µM | [10] > 100 µM | [11] > 100 µM | [12] > 100 µM | [13] > 100 µM | [14] > 100 µM | [15] > 100 µM | [16] > 100 µM | [17] > 100 µM | [18] > 100 µM | [19] > 100 µM

N#Cc1c(-c2ccccc2)cc(Nc2ccc(Cl)cc2)n2c1nc1ccccc12
inactive: [1] 1.71 µM | [2] 2.49 µM | [3] 1.91 µM | [4] 3.27 µM | [5] 5.47 µM | [6] 3.71 µM | [7] 4.66 µM | [8] 1.67 µM | [9] 2.34 µM | [10] 2.94 µM | [11] 2.62 µM | [12] 2.99 µM | [13] 2.64 µM | [14] 1.74 µM | [15] 3.23 µM | [16] 3.59 µM | [17] 4.84 µM | [18] 3.03 µM | [19] 1.52 µM
